According to patent EP2123249A1, “OIL SOLUTION, AND LUBRICANT, MOISTURE-RETAINING AGENT AND PREPARATION FOR EXTERNAL APPLICATION CONTAINING THE SAME” (priority 2007, dated 2008):
Where a name gives a salt, the structure may show the parent alone.

How the values were obtained:
[1] = Viscosity, Brookfield viscometer DV-II+ (Spindle No. 2, 12 rpm, 25°C); assay type: physicochemical
Procedure: The viscosity of the oil agent of the present invention is, when used in external preparations such as moisturizers and cosmetic materials, preferably 5-200 (mPa·s, 25°C), and more preferably 8-100 (mPa·s, 25°C) . When the viscosity is within the above range, good feeling of use without stickiness can be obtained upon application to skin, etc. In addition, when the oil agent is used in lubricating agents, the viscosity is preferably 50-200 (mPa·s, 25°C) , and more preferably 60-180 (mPa·s, 25°C). When the viscosity is within this range, appropriate lubricating property and workability can be obtained. In this specification, "viscosity" refers to a value of viscosity measured using a Brookfield viscometer DV-II+ (Spindle No. 2, 12 rpm, 25°C).
In these examples, viscosity was measured using a Brookfield viscometer DV-II+ (Spindle No. 2, 12 rpm, 25°C).

[2] = Feeling of use, graded by viscosity; assay type: physicochemical; conditions: class by viscosity at 25°C
[3] = Oil solubility evaluation in KAK99 (isononyl isononanoate)
[4] = Water solubility evaluation; assay type: physicochemical; conditions: in water

Structure (SMILES) | Viscosity [1] [mPa·s] | Feeling of use [2] | Oil solubility [3] | Water solubility [4]
CCOCCOCCOC(=O)CCCCC(=O)OCCOCCOCC [Example 3, dicarbitol adipate] | 20 | light |  | 
CCOCCOCCOCCOC(=O)CCC(=O)OCCOCCOCCOCC [Example 5, di(triethylene glycol monoethyl ether) succinate] | 32.5 | slightly light | △ (Dissolved in KAK99 up to 5 % by mass) | 
CCOCCOC(=O)CCC(=O)OCCOCC [Example 6, di(monoethylene glycol monoethyl ether) succinate] | 10.0 | light |  | △ (Dissolved in water up to 5 % by mass)
CCOCCOCCOC(=O)C(O)C(O)C(=O)OCCOCCOCC (stereo not drawn) [Example 4, dicarbitol tartrate] | 207 | slightly heavy |  | 
CCOCCOCCOC(=O)CC(O)C(=O)OCCOCCOCC (stereo not drawn) [Example 2, dicarbitol malate] | 45 | slightly light | △ (Dissolved in KAK99 up to 5 % by mass) | ○ (Dissolved in water up to 10 % by mass)
CCOCCOCCOC(=O)CCC(=O)OCCOCCOCC [Example 1, dicarbitol succinate] | 12.5 | light |  | 
CCOCCOCCOC(=O)CC(C)CC(C)(C)C (stereo not drawn) [Comparative example 1, carbitol isononanoate, reference compound] | 5 | light |  | 
